Experimental data as given in patent publication US11980658B2, “Immunotherapeutic molecules and uses thereof” (priority 2012, dated 2024).
“Also recorded” adds a separate entry of the source. Where no end group is shown, it is not given here.

Columns and labels:
Assay type in all cases: cell-based, human
basophils = assay: Basophil activation test (CD63 upregulation by flow cytometry)
Description: Basophil activation was assessed by CD63 upregulation detected by flow cytometry as described (Drew et al. J Immunol. 2004; 173(9):5872-9). Positive controls were rabbit anti-human IgE antibody (7.5 ug/mL; DAKO Corporation, CA, USA), N-formyl-methionine-leucine-phenylalanine (fMLP) (0.4 ug/mL; Sigma) and CPE. CPE, Ara h 1 and peptides were tested over a 3-log concentration range (5, 0.5 and 0.05 ug/mL)

[1] = system: Ara h 1-specific CD4+ T-cell lines (TCL); assay: Antigen-induced TCL proliferation, 3H-thymidine uptake assay; conditions: for Donor responder frequency for TCL recognition of Ara h 1 20-mer peptides: n=18 peanut-allergic subjects, SI≥2.5
Excerpt: Ara h 1-specific oligoclonal TCL were generated from peripheral blood mononuclear cells (PBMC) of peanut-allergic subjects using 5,6-carboxyfluorescein diacetate succinimidylester (CFSE)-based methodology (Mannering et al. J Immunol Methods. 2005; 298(1-2):83-92) as described (Prickett et al. 2011 supra), with CPE ([…]), Ara h 1 (10 gg/mL) or 20-mer peptides spanning the Ara h 1 sequence (11 amino acid (aa) overlap (17 aa overlap for the last peptide); Table 5; 10 pg/mL/peptide) as the driving antigens. All TCL were tested for specificity (proliferation) to individual Ara h 1 20-mers (10 pg/mL) as well as CPE ([…]) and/or Ara h 1 (10 pg/mL) Core epitope sequences were mapped within selected 20-mers using peptide sets truncated from the N- or C-terminus of the 20-mer as described (Prickett et al. 2011 supra).
(§1) All culturing was performed in RPMI-1640 containing 2 mM L-glutamine, 100 IU/mL penicillin-streptomycin and 5% heat-inactivated human AB serum (Sigma-Aldrich, St Louis, USA) (cRPMI). Antigen-induced TCL proliferation was assessed by ^3H-thymidine (3H-TdR) uptake assays as described (Prickett et al. 2011 supra). A stimulation index (SI; cpm antigen-stimulated T cells/cpm unstimulated T cells) >2.5 was considered positive and all positive responses confirmed in >2 assays. HLA-restriction of epitope recognition by TCL was assessed using monoclonal antibodies (mAb) against HLA-DR (L243), HLA-DQ (SVP-L3) or HLA-DP (B7/21) to block epitope presentation as described (Prickett et al. 2011 supra). To allow detection of peptide-induced CD4+ T-cell proliferation within whole PBMC, 7-day cultures of CFSE-labelled PBMC were set up as described for TCL generation (Prickett et al. 2011 supra). At least 10,000 CD4^+ T cells were analyzed per sample and SI calculated as percentage of CD4^+CFSE^lo (proliferated) cells with antigen/percentage of CD4^+CFSE^lo cells without antigen (background). The detection threshold for a specific response in this assay was assessed by expanding peptide-specific TCL from proliferated CD4^+ cells over a range of SI values for three subjects. Specific TCL could be generated from divided T cells with SI as low as 1.1 in all three subjects (data not shown) allowing designation of an SI>1.1 as positive.

HLA-DR, HLA-DQ, HLA-DP = assay: HLA class II restriction of epitope recognition by TCL (blocking mAbs); conditions: anti-HLA-DR, -DP or -DQ mAbs
Description: as §1
There is no identified HLA-II association with peanut allergy (Shreffler et al. Ann Allergy Asthma Immunol 2006; 96(6):865-9), therefore peptides selected for therapy must bind diverse HLA-II molecules for wide applicability. To determine the HLA-II type presenting each epitope, anti-HLA-DR, -DP or -DQ mAbs were used to block individual epitope presentation to T cells. […] At least two subjects and/or TCL were tested per epitope (FIG. 8).

## NNFGKLFEVKPDKKNPQLQ [(409-427), NNFGKLFEVKPDKKNPQLQ]
basophils
  Basophil activation (percentage of activated CD63hi basophils): 8%

## ALMLPHFNSKAMVIVVVNKG [compound 50]
[1]
  Donor responder frequency for TCL recognition of Ara h 1 20-mer peptides: 33%

## ALMLPHFNSKAMVIVVV (Chemcially synthezised) [(442-458)]
HLA-DR, HLA-DQ, HLA-DP
  HLA class II restriction (mAb that blocked epitope recognition): HLA-DR-restricted

## FQNLQNHRIVQIEAKPNTLV [(206-225)]
[1]
  TCL stimulation / recognition (in words): efficiently stimulated TCL specific for either epitope

## VEIKEGALMLPHFNSKA (Chemcially synthezised) [(436-452)]
HLA-DR, HLA-DQ, HLA-DP
  HLA class II restriction (mAb that blocked epitope recognition): blocked by anti-HLA-DR for some TCL but by anti-HLA-DQ for others

## KAMVIVVVNKGTGNLELVAV (Chemcially Synthezised) [compound 51]
[1]
  TCL stimulation / recognition (in words): efficiently stimulated TCL specific for either epitope
  Donor responder frequency for TCL recognition of Ara h 1 20-mer peptides: 33%

## GDVFIMPAAHPVAINASS (Chemcially synthezised) [(507-524)]
HLA-DR, HLA-DQ, HLA-DP
  HLA class II restriction (mAb that blocked epitope recognition): blocked by anti-HLA-DR for some TCL but by anti-HLA-DQ for others; also recorded: HLA-DQ restricted

## WSTRSSENNEGVIVKVSKE [(353-371)]
HLA-DR, HLA-DQ, HLA-DP
  HLA class II restriction (mAb that blocked epitope recognition): blocked by anti-HLA-DQ in both subjects tested

B1: Ara h 1: major peanut allergen, 7S seed storage glycoprotein or vicilin, enriched from CPE by liquid chromatography (protein, listed as Homo sapiens)
chain: MRGRVSPLMLLLGILVLASVSATHAKSSPYQKKTENPCAQRCLQSCQQEPDDLKQKACESRCTKLEYDPRCVYDPRGHTGTTNQRSPPGERTRGRQPGDYDDDRRQPRREEGGRWGPAGPREREREEDWRQPREDWRRPSHQQPRKIRPEGREGEQEWGTPGSHVREETSRNNPFYFPSRRFSTRYGNQNGRIRVLQRFDQRSRQFQNLQNHRIVQIEAKPNTLVLPKHADADNILVIQQGQATVTVANGNNRKSFNLDEGHALRIPSGFISYILNRHDNQNLRVAKISMPVNTPGQFEDFFPASSRDQSSYLQGFSRNTLEAAFNAEFNEIRRVLLEENAGGEQEERGQRRWSTRSSENNEGVIVKVSKEHVEELTKHAKSVSKKGSEEEGDITNPINLREGEPDLSNNFGKLFEVKPDKKNPQLQDLDMMLTCVEIKEGALMLPHFNSKAMVIVVVNKGTGNLELVAVRKEQQQRGRREEEEDEDEEEEGSNREVRRYTARLKEGDVFIMPAAHPVAINASSELHLLGFGINAENNHRIFLAGDKDNVIDQIEKQAKDLAFPGSGEQVEKLIKNQKESHFVSARPQSQSQSPSSPEKESPEKEDQEEENQGGKGPLLSILKAFN
basophils
  Basophil activation (percentage of activated CD63hi basophils): 80-90%
